According to ChEMBL document CHEMBL1151111, “Antitumor agents, 99. Synthetic ring C aromatized podophyllotoxin analogues as potential inhibitors of human DNA topoisomerase II” (1988):
≈ marks a conversion by molar mass, not a printed value. Calls of active or inactive are those of the source. The calls are words filed in the database; no cut-off is given here.

Assays:
Homo sapiens [1] = organism: Homo sapiens; experiment: Inhibition of human DNA topoisomerase 2 at 400 uM
KB = experiment: Cytotoxicity against human KB cells; type: functional; conditions: read-out: ED50 (the source's name)
Homo sapiens [2] = organism: Homo sapiens; experiment: Inhibition of human DNA topoisomerase 2 at 200 uM
P388 = experiment: In vivo cytotoxicity against mouse P388 cells at 50 mg/kg/day relative to control; type: functional

CCO[C@@H]1c2cc3c(cc2[C@@H](c2cc(OC)c(O)c(OC)c2)[C@H]2C(=O)OC[C@@H]21)OCO3
inhibition (Homo sapiens [1]): 25%
EC50 (KB): 1.1 µg/mL (≈ 2.57 µM)

CCOc1c2c(c(-c3cc(OC)c(O)c(OC)c3)c3cc4c(cc13)OCO4)C(=O)OC2
inhibition (Homo sapiens [2]): inactive
EC50 (KB): 4 µg/mL (≈ 9.42 µM)

COc1cc(-c2c3c(c(O)c4cc5c(cc24)OCO5)COC3=O)cc(OC)c1O
inhibition (Homo sapiens [2]): inactive
EC50 (KB): 2.2 µg/mL (≈ 5.55 µM)

COc1cc([C@@H]2c3cc4c(cc3[C@@H](O)[C@H]3COC(=O)[C@H]23)OCO4)cc(OC)c1O [4'-DEMETHYLEPIPODOPHYLLOTOXIN]
inhibition (Homo sapiens [1]): 50%
EC50 (KB): 0.1 µg/mL (≈ 0.25 µM)

CCOc1c2c(c(-c3cc(OC)c(OC)c(OC)c3)c3cc4c(cc13)OCO4)C(=O)OC2 [DEHYDROPODOPHYLLOTOXIN ETHYL ETHER]
inhibition (Homo sapiens [2]): inactive
EC50 (KB): 4 µg/mL (≈ 9.12 µM)

CCCOc1c2c(c(-c3cc(OC)c(OC)c(OC)c3)c3cc4c(cc13)OCO4)C(=O)OC2 [DEHYDROPODOPHYLLOTOXIN PROPYL ETHER]
inhibition (Homo sapiens [2]): inactive
EC50 (KB): 4 µg/mL (≈ 8.84 µM)

COc1cc(-c2c3c(c(O)c4cc5c(cc24)OCO5)COC3=O)cc(OC)c1OC [DEHYDROPODOPHYLLOTOXIN]
inhibition (Homo sapiens [2]): inactive
EC50 (KB): 4 µg/mL (≈ 9.75 µM)

COc1cc2c(O)c3c(c(-c4ccc5c(c4)OCO5)c2cc1OC)C(=O)OC3 [DIPHYLLIN]
T/C (P388): 150%
EC50 (KB): < 1 µg/mL

COc1cc([C@@H]2c3cc4c(cc3[C@@H](O[C@@H]3O[C@@H]5CO[C@@H](C)O[C@H]5[C@H](O)[C@H]3O)[C@H]3COC(=O)[C@H]23)OCO4)cc(OC)c1O [ETOPOSIDE]
inhibition (Homo sapiens [2]): 80%
inhibition (Homo sapiens [1]): 85%
EC50 (KB): 0.1 µg/mL (≈ 0.17 µM)

COc1cc2c(OC)c3c(c(-c4ccc5c(c4)OCO5)c2cc1OC)C(=O)OC3 [JUSTICIDIN A]
T/C (P388): 150%
EC50 (KB): < 1 µg/mL
